Reference: ChEMBL document CHEMBL1201862, “PubChem BioAssay data set” (2004)
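All cell lines were grown in 96-well plates and treated with compound for 48 hours. GI50 marks 50% less growth.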 Calls of active or inactive are those of the source. Cut-off read from the data, not from the text of the source: active = GI50 up to about 1.1 µM and inactive = higher.

Key:
Test in all cases: growth of human tumour cells (NCI), 48 h
786-0 = system: 786-0
A498 = system: A498
CCRF-CEM = system: CCRF-CEM
COLO 205 = system: COLO 205
DU-145 = system: DU-145
EKVX = system: EKVX
HCT-15 = system: HCT-15
HOP-62 = system: HOP-62
IGROV-1 = system: IGROV-1
MOLT-4 = system: MOLT-4
OVCAR-4 = system: OVCAR-4
OVCAR-5 = system: OVCAR-5
PC-3 = system: PC-3
SF-295 = system: SF-295
SK-MEL-2 = system: SK-MEL-2
SNB-19 = system: SNB-19
SNB-75 = system: SNB-75
SW-620 = system: SW-620
U-251 = system: U-251
UACC-62 = system: UACC-62

Structure (SMILES) | GI50 (786-0) | GI50 (A498) | GI50 (CCRF-CEM) | GI50 (COLO 205) | GI50 (DU-145) | GI50 (EKVX) | GI50 (HCT-15) [µM] | GI50 (HOP-62) | GI50 (IGROV-1) | GI50 (MOLT-4) | GI50 (OVCAR-4) | GI50 (OVCAR-5) | GI50 (PC-3) | GI50 (SF-295) | GI50 (SK-MEL-2) | GI50 (SNB-19) | GI50 (SNB-75) | GI50 (SW-620) | GI50 (U-251) | GI50 (UACC-62)
COc1c(C(CC(C)C)OC(C)=O)ccc2c1C(=O)OCc1cc(C)cc(O)c1O2 (stereo not given) | 15.5 µM (inactive) | 20.3 µM (inactive) | > 100 µM (inactive) | 17.6 µM (inactive) | 12.5 µM (inactive) | 11.8 µM (inactive) | 10.1 | 18.7 µM (inactive) | 16.6 µM (inactive) | 12.8 µM (inactive) | 13.9 µM (inactive) | 15.1 µM (inactive) | 9.73 µM (inactive) | 14.4 µM (inactive) | 19.1 µM (inactive) | 14.8 µM (inactive) | 19.2 µM (inactive) | 17.5 µM (inactive) | 14.9 µM (inactive) | 12.7 µM (inactive)
N#Cc1c(-c2ccc(Cl)cc2)c(-c2ccc(Cl)cc2)nn(CCOC(=O)CCC(=O)O)c1=O | 0.755 µM (active) | 0.652 µM (active) | 0.48 µM (active) | 0.582 µM (active) | 0.615 µM (active) | 2.69 µM (inactive) | 0.532 | 0.64 µM (active) | 0.925 µM (active) | 0.566 µM (active) | 1.45 µM (inactive) | 1.27 µM (inactive) | 0.423 µM (active) | 0.522 µM (active) | 0.221 µM (active) | 2.65 µM (inactive) | 0.193 µM (active) | 0.995 µM (active) | 0.505 µM (active) | 0.26 µM (active)
CC(C)(C)/C(O)=C\c1nc2cc(C(F)(F)F)ccc2[nH]c1=O | > 100 µM (inactive) | > 100 µM (inactive) | 13.3 µM (inactive) | > 100 µM (inactive) | > 100 µM (inactive) | > 100 µM (inactive) | > 100 | > 100 µM (inactive) | > 100 µM (inactive) | > 10 µM (inactive) | > 100 µM (inactive) | > 100 µM (inactive) | > 100 µM (inactive) | > 100 µM (inactive) | > 100 µM (inactive) | > 100 µM (inactive) | > 100 µM (inactive) | > 100 µM (inactive) | > 100 µM (inactive) | > 100 µM (inactive)
CCOC(=O)/C(=C\c1ccc(N(C)C)cc1)S(=O)(=O)C(F)(F)C(F)(F)C(F)(F)C(F)(F)F | > 100 µM (inactive) | > 100 µM (inactive) | > 100 µM (inactive) | > 100 µM (inactive) | > 100 µM (inactive) | > 100 µM (inactive) | > 100 | > 100 µM (inactive) | > 100 µM (inactive) | > 100 µM (inactive) | > 100 µM (inactive) | > 100 µM (inactive) | > 100 µM (inactive) | > 100 µM (inactive) | > 100 µM (inactive) | > 100 µM (inactive) | > 100 µM (inactive) | > 100 µM (inactive) | > 100 µM (inactive) | > 100 µM (inactive)
S=C1SCN(Cc2ccco2)CN1c1ccc(Br)cc1 | 17.1 µM (inactive) | 20 µM (inactive) | 16.4 µM (inactive) | 15.8 µM (inactive) | 26.2 µM (inactive) | 18.7 µM (inactive) | 8.69 | 23.8 µM (inactive) | 16.4 µM (inactive) | 17.4 µM (inactive) | 13.9 µM (inactive) | 16.8 µM (inactive) | 16.7 µM (inactive) | 6.98 µM (inactive) | 13.6 µM (inactive) | 21.8 µM (inactive) | 37.8 µM (inactive) | 19.5 µM (inactive) | 21.9 µM (inactive) | 2.94 µM (inactive)
COC(=O)C1=C(O)C(C(=O)OC)[C@]2(O)[C@H](C(=O)OC)[C@H]1C[C@@H](c1ccccc1OC)[C@H]2C(=O)OC (stereo not given in full) | 7.76 µM (inactive) | 3.53 µM (inactive) | 3.56 µM (inactive) | 4.55 µM (inactive) | 5.07 µM (inactive) | 8.07 µM (inactive) | 3.31 | 12.3 µM (inactive) | 3.33 µM (inactive) | 3.59 µM (inactive) | 4.95 µM (inactive) | 6.08 µM (inactive) | 6.03 µM (inactive) | 6.08 µM (inactive) | 6.03 µM (inactive) | 5.24 µM (inactive) | 10.7 µM (inactive) | 4.25 µM (inactive) | 6.56 µM (inactive) | 4.24 µM (inactive)
CC(CN(C)C)C(C#N)(c1ccccc1)c1ccccc1 (stereo not given) | > 100 µM (inactive) | > 100 µM (inactive) | 49.1 µM (inactive) | 82.6 µM (inactive) | > 100 µM (inactive) | > 100 µM (inactive) | > 100 | > 100 µM (inactive) | > 100 µM (inactive) | > 100 µM (inactive) | > 100 µM (inactive) | > 100 µM (inactive) | 47.6 µM (inactive) | > 100 µM (inactive) | > 100 µM (inactive) | > 100 µM (inactive) | > 100 µM (inactive) | > 100 µM (inactive) | > 100 µM (inactive) | > 100 µM (inactive)
CC1=C(Cl)C[C@@H](/C(C)=C\Cl)O[C@@]1(O)C(Br)Br | 33.7 µM (inactive) | 31.1 µM (inactive) | 6.27 µM (inactive) | 29.5 µM (inactive) | 19.9 µM (inactive) | 26.5 µM (inactive) | 16.8 | > 100 µM (inactive) | 34.3 µM (inactive) | 15.6 µM (inactive) | 43 µM (inactive) | 19.2 µM (inactive) | 60.5 µM (inactive) | > 100 µM (inactive) | 28.4 µM (inactive) | > 100 µM (inactive) | 55.6 µM (inactive) | 37.3 µM (inactive) | 32.8 µM (inactive) | 45.2 µM (inactive)
CC1=C(C)CC(C#N)(C#N)C(C#N)(C#N)C1 | > 4.94 µM (inactive) | > 10 µM (inactive) | 1.45 µM (inactive) | 4.21 µM (inactive) | > 10 µM (inactive) | > 10 µM (inactive) | > 10 | > 10 µM (inactive) | > 3.83 µM (inactive) | 2.51 µM (inactive) | > 8.04 µM (inactive) | > 10 µM (inactive) | > 6.35 µM (inactive) | > 10 µM (inactive) | > 10 µM (inactive) | > 10 µM (inactive) | > 10 µM (inactive) | 2.31 µM (inactive) | > 10 µM (inactive) | > 6.58 µM (inactive)
CN1CN(c2ccccc2)C2(CCN(C(=O)OC(C)(C)C)CC2)C1=O | > 100 µM (inactive) | > 100 µM (inactive) | > 100 µM (inactive) | > 100 µM (inactive) | > 100 µM (inactive) | > 100 µM (inactive) | > 100 | > 100 µM (inactive) | > 100 µM (inactive) | > 100 µM (inactive) | > 100 µM (inactive) | > 100 µM (inactive) | > 100 µM (inactive) | > 100 µM (inactive) | > 100 µM (inactive) | > 100 µM (inactive) | > 100 µM (inactive) | > 100 µM (inactive) | > 100 µM (inactive) | > 100 µM (inactive)
COC1=C(OC)C(=O)c2cc(C)c(=O)c(C)cc2C1=O | 11.9 µM (inactive) | 24.2 µM (inactive) | 2.45 µM (inactive) | 19.1 µM (inactive) | 16.9 µM (inactive) | 17.3 µM (inactive) | 21.3 | 21.3 µM (inactive) | 18.6 µM (inactive) | 2.27 µM (inactive) | 2.83 µM (inactive) | 31.3 µM (inactive) | 20.3 µM (inactive) | 32.6 µM (inactive) | 17.3 µM (inactive) | 18.4 µM (inactive) | 18.4 µM (inactive) | 8.61 µM (inactive) | 17.2 µM (inactive) | 13.4 µM (inactive)
COC(=O)c1cc2c(cc1O)[C@@H](NC(C)=O)CCc1cc(OC)c(OC)c(OC)c1-2 | 0.0328 µM (active) | 0.0568 µM (active) | 0.0492 µM (active) | 0.029 µM (active) | 0.064 µM (active) | 0.0415 µM (active) | 0.0461 | 0.0946 µM (active) | 0.0627 µM (active) | 0.0796 µM (active) | 0.0432 µM (active) | > 10 µM (inactive) | 0.0509 µM (active) | 0.0385 µM (active) | 0.084 µM (active) | 0.101 µM (active) | 0.0299 µM (active) | 0.108 µM (active) | 0.0342 µM (active) | 0.0692 µM (active)
Nc1cccc(CCN2CCN(CCCc3ccccc3)CC2)c1 | 18.2 µM (inactive) | 47.5 µM (inactive) | 25.8 µM (inactive) | 19.5 µM (inactive) | 55.1 µM (inactive) | > 100 µM (inactive) | 18 | 36.5 µM (inactive) | 37.3 µM (inactive) | 30.5 µM (inactive) | 39.9 µM (inactive) | > 100 µM (inactive) | 70.1 µM (inactive) | 24.8 µM (inactive) | > 100 µM (inactive) | > 100 µM (inactive) | > 100 µM (inactive) | 30.5 µM (inactive) | 46.2 µM (inactive) | 21.8 µM (inactive)
O=C(NCCCCNCCCNC(=O)OCc1ccccc1)OCc1ccccc1 | 21.9 µM (inactive) | 17.4 µM (inactive) | 31 µM (inactive) | 16.9 µM (inactive) | 73.6 µM (inactive) | 51.6 µM (inactive) | 61.5 | 27.8 µM (inactive) | 22.1 µM (inactive) | 26.9 µM (inactive) | 80.2 µM (inactive) | 85.1 µM (inactive) | 27.2 µM (inactive) | 21.8 µM (inactive) | 21 µM (inactive) | 37.8 µM (inactive) | 25.5 µM (inactive) | 61.7 µM (inactive) | 34.5 µM (inactive) | 17.9 µM (inactive)
